Molecules are shown by their SMILES. *1 amine or outer side, *2 acyl side, *3 side chain or, on linkers, in order; H or OH if unused. Where a SMILES comes first, the peptide text is derived from it. Side-chain parts run from the residue outwards. [ ]: non-standard residue; d: D form. The star is where a group is joined. C20 diacid = O=C(O)CCCCCCCCCCCCCCCCCCC(=O)*; C18 diacid = O=C(O)CCCCCCCCCCCCCCCCC(=O)*; γGlu = O=C(O)[C@H](CCC(=O)[*:2])N[*:1]; 4Pal = N[C@@H](Cc1ccncc1)C(=O)O; αMeL = CC(C)C[C@](C)(N)C(=O)O; Iva = CC[C@](C)(N)C(=O)O; Orn = NCCC[C@H](N)C(=O)O; AEEA = NCCOCCOCC(=O)O; Aib = CC(C)(N)C(=O)O Where only a bound is given, the exact number is not on record here.

These results are taken from patent US12723063B2, “GIPR-agonist compounds” (Eli Lilly and Company, priority 2019, dated 2026).

The target of one assay is T1, human GLP-1R (Homo sapiens, UniProt P43220).
T1 construct: expressed in transfected cells; crude membranes
T1 sequence (P43220 24-463): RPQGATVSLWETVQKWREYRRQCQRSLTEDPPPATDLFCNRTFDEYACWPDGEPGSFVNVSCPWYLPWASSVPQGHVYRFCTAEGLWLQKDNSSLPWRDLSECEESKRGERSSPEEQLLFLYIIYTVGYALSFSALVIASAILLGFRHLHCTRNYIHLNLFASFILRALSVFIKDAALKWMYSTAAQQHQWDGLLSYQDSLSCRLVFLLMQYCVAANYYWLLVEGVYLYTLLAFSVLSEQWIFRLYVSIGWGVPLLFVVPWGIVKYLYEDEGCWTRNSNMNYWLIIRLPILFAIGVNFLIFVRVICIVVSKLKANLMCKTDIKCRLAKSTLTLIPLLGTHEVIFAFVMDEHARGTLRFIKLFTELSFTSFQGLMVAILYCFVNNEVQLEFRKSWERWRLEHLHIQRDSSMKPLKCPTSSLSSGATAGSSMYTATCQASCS
Nature of the assay: [125I]-GLP-1 binding, SPA with WGA beads, 0.1% bacitracin. As to conditions: geometric mean, read-out: hGLP1R Ki. The method, boiled down:
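Binding buffer was 25 mM HEPES pH 7.4 with 2.5 mM CaCl2, 1 mM MgCl2, 0.1% (w/v) bacitracin, 0.003% Tween-20 and EDTA-free protease inhibitors. Four-parameter regression gave IC50, converted to Ki (geometric mean, SEM, n independent days).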

A further assay deals with T2, human GIPR (Homo sapiens, UniProt P48546).
T2 construct: expressed in transfected cells; crude membranes
T2 sequence (P48546 22-466): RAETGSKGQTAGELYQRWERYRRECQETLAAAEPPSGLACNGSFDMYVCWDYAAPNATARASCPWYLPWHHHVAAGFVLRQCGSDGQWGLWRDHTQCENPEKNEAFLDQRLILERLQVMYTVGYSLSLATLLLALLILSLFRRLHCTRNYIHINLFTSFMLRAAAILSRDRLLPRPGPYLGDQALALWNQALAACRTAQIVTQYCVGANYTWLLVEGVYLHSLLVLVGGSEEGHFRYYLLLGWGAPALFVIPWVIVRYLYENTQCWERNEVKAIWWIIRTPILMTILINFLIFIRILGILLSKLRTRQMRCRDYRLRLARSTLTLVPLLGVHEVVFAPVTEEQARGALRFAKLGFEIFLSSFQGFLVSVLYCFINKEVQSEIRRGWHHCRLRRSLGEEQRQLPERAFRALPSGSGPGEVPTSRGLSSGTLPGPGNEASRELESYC
The assay can be described thus: [125I]-GIP binding, SPA with WGA beads, 0.1% bacitracin. As to conditions: geometric mean, read-out: hGIPR Ki. An outline of the steps: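 Ki values are geometric means (SEM, n independent days), derived from four-parameter nonlinear regression of IC50. Membranes came from hGIPR-expressing CHO cells.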

The target in a further assay is T3, human GcgR (Homo sapiens, UniProt P47871).
T3 construct: expressed in transfected cells; crude membranes
T3 sequence (P47871 26-477): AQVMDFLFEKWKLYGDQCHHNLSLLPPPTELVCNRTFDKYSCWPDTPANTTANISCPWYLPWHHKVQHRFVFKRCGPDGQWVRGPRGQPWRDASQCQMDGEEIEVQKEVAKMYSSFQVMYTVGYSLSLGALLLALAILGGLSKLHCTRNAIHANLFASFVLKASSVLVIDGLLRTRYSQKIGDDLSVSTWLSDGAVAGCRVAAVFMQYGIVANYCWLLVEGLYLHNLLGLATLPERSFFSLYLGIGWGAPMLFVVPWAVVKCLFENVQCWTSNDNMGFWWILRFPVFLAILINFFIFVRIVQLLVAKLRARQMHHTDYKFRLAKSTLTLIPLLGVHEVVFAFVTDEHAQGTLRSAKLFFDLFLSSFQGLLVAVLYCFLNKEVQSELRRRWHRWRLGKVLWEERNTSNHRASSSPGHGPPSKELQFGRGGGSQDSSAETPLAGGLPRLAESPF
Nature of the assay: [125I]-Glucagon binding, SPA with WGA beads, 0.1% bacitracin. The conditions noted are these: geometric mean, read-out: hGcgR Ki. The method, boiled down: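 SPA competition binding with WGA beads on crude membranes from HEK293 cells stably expressing hGcgR. Buffer: 25 mM HEPES pH 7.4, 2.5 mM CaCl2, 1 mM MgCl2, 0.1% bacitracin, 0.003% Tween-20; 10-point 3-fold dilutions, NSB with 1 μM Gcg.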

For the molecule `CC[C@H](C)[C@H](NC(=O)[C@H](CO)NC(=O)[C@H](Cc1ccc(O)cc1)NC(=O)[C@H](CC(=O)O)NC(=O)[C@H](CO)NC(=O)[C@@H](NC(=O)[C@H](Cc1ccccc1)NC(=O)[C@@H](NC(=O)CNC(=O)[C@H](CCC(=O)O)NC(=O)C(C)(C)NC(=O)[C@@H](N)Cc1ccc(O)cc1)[C@@H](C)O)[C@@H](C)CC)C(=O)N[C@@H](CC(C)C)C(=O)N[C@@H](CC(C)C)C(=O)N[C@@H](CC(=O)O)C(=O)N[C@@H](CCCCN)C(=O)N[C@@H](CCCCNC(=O)COCCOCCNC(=O)COCCOCCNC(=O)CC[C@H](NC(=O)CCCCCCCCCCCCCCCCC(=O)O)C(=O)O)C(=O)N[C@@H](Cc1c[nH]cn1)C(=O)N[C@@H](CCC(N)=O)C(=O)NC(C)(C)C(=O)N[C@@H](CC(=O)O)C(=O)N[C@@H](Cc1ccccc1)C(=O)N[C@H](C(=O)N[C@@H](CC(N)=O)C(=O)N[C@@H](Cc1ccc(O)cc1)C(=O)N[C@@H](CC(C)C)C(=O)N[C@@H](CC(C)C)C(=O)N[C@@H](C)C(=O)N[C@@H](C)C(=O)NCC(=O)N1CCC[C@H]1C(=O)N[C@@H](CO)C(=O)N[C@@H](CO)C(=O)NCC(=O)N[C@@H](C)C(=O)N1CCC[C@H]1C(=O)N1CCC[C@H]1C(=O)N1CCC[C@H]1C(=O)N[C@@H](CO)C(N)=O)C(C)C` [Example 31] (H-Y[Aib]EGTFISDYSILLDKK([AEEA-AEEA-γGlu-C18 diacid])HQ[Aib]DFVNYLLAAGPSSGAPPPS-NH2), the Ki at human GLP-1R is 266 nM; at human GIPR it was 0.0473 nM; on human GcgR, greater than 959 nM.
As for `CC[C@H](C)[C@H](NC(=O)[C@H](CC(C)C)NC(=O)[C@@H](NC(=O)CNC(=O)[C@H](CCC(=O)O)NC(=O)C(C)(C)NC(=O)[C@@H](N)Cc1ccc(O)cc1)[C@@H](C)O)C(=O)N[C@@H](CO)C(=O)N[C@@H](CC(=O)O)C(=O)N[C@@H](Cc1ccc(O)cc1)C(=O)N[C@@H](CO)C(=O)N[C@H](C(=O)N[C@@](C)(CC(C)C)C(=O)N[C@@H](CC(C)C)C(=O)N[C@@H](CC(=O)O)C(=O)N[C@@H](CCCCN)C(=O)N[C@@H](CCCCNC(=O)COCCOCCNC(=O)COCCOCCNC(=O)CC[C@H](NC(=O)CCCCCCCCCCCCCCCCCCC(=O)O)C(=O)O)C(=O)N[C@@H](Cc1c[nH]cn1)C(=O)N[C@@H](CCC(N)=O)C(=O)NC(C)(C)C(=O)N[C@@H](CCC(=O)O)C(=O)N[C@@H](Cc1ccccc1)C(=O)N[C@H](C(=O)N[C@@H](CCC(=O)O)C(=O)N[C@@H](Cc1ccc(O)cc1)C(=O)N[C@@H](CC(C)C)C(=O)N[C@@H](CC(C)C)C(=O)N[C@@H](CCC(=O)O)C(=O)NCC(=O)NCC(=O)N1CCC[C@H]1C(=O)N[C@@H](CO)C(=O)N[C@@H](CO)C(=O)NCC(=O)N[C@@H](C)C(=O)N1CCC[C@H]1C(=O)N1CCC[C@H]1C(=O)N1CCC[C@H]1C(=O)N[C@@H](CO)C(N)=O)C(C)C)[C@@H](C)CC` [Example 73] (H-Y[Aib]EGTLISDYSI[αMeL]LDKK([AEEA-AEEA-γGlu-C20 diacid])HQ[Aib]EFVEYLLEGGPSSGAPPPS-NH2), the Ki at human GLP-1R turned out to be 117 nM; at human GIPR, 0.036 nM; at human GcgR, 292 nM.
With `CC[C@H](C)[C@H](NC(=O)[C@H](CO)NC(=O)[C@H](Cc1ccc(O)cc1)NC(=O)[C@H](CC(=O)O)NC(=O)[C@H](CO)NC(=O)[C@@H](NC(=O)[C@](C)(CC)NC(=O)[C@@H](NC(=O)CNC(=O)[C@H](CCC(=O)O)NC(=O)C(C)(C)NC(=O)[C@@H](N)Cc1ccc(O)cc1)[C@@H](C)O)[C@@H](C)CC)C(=O)N[C@@](C)(CC(C)C)C(=O)N[C@@H](CC(C)C)C(=O)N[C@@H](CC(=O)O)C(=O)N[C@@H](CCCCN)C(=O)N[C@@H](CCCCNC(=O)COCCOCCNC(=O)COCCOCCNC(=O)CC[C@H](NC(=O)CCCCCCCCCCCCCCCCCCC(=O)O)C(=O)O)C(=O)N[C@@H](Cc1c[nH]cn1)C(=O)N[C@@H](CCC(N)=O)C(=O)NC(C)(C)C(=O)N[C@@H](CC(=O)O)C(=O)N[C@@H](Cc1ccccc1)C(=O)N[C@H](C(=O)N[C@@H](CCC(=O)O)C(=O)N[C@@H](Cc1ccncc1)C(=O)N[C@@H](CC(C)C)C(=O)N[C@@H](CC(C)C)C(=O)N[C@@H](CCC(=O)O)C(=O)NCC(=O)NCC(=O)N1CCC[C@H]1C(=O)N[C@@H](CO)C(=O)N[C@@H](CO)C(=O)NCC(=O)N[C@@H](C)C(=O)N1CCC[C@H]1C(=O)N1CCC[C@H]1C(=O)N1CCC[C@H]1C(=O)N[C@@H](CO)C(N)=O)C(C)C` [Example 74] (H-Y[Aib]EGT[Iva]ISDYSI[αMeL]LDKK([AEEA-AEEA-γGlu-C20 diacid])HQ[Aib]DFVE[4Pal]LLEGGPSSGAPPPS-NH2), the Ki at human GLP-1R was determined as 395 nM; on human GIPR it was 0.0287 nM; at human GcgR, 511 nM.
`CC[C@H](C)[C@H](NC(=O)[C@H](CO)NC(=O)[C@H](Cc1ccc(O)cc1)NC(=O)[C@H](CC(=O)O)NC(=O)[C@H](CO)NC(=O)[C@@H](NC(=O)[C@](C)(CC)NC(=O)[C@@H](NC(=O)CNC(=O)[C@H](CCC(=O)O)NC(=O)C(C)(C)NC(=O)[C@@H](N)Cc1ccc(O)cc1)[C@@H](C)O)[C@@H](C)CC)C(=O)N[C@@](C)(CC(C)C)C(=O)N[C@@H](CC(C)C)C(=O)N[C@@H](CC(=O)O)C(=O)N[C@@H](CCCCN)C(=O)N[C@@H](CCCCNC(=O)COCCOCCNC(=O)COCCOCCNC(=O)CC[C@H](NC(=O)CCCCCCCCCCCCCCCCCCC(=O)O)C(=O)O)C(=O)N[C@@H](Cc1c[nH]cn1)C(=O)N[C@@H](CCC(N)=O)C(=O)NC(C)(C)C(=O)N[C@@H](CC(=O)O)C(=O)N[C@@H](Cc1ccccc1)C(=O)N[C@H](C(=O)N[C@@H](CCC(=O)O)C(=O)N[C@@H](Cc1ccncc1)C(=O)N[C@@H](CC(C)C)C(=O)N[C@@H](CC(C)C)C(=O)N[C@@H](CCC(=O)O)C(=O)N[C@H](C(=O)NCC(=O)N1CCC[C@H]1C(=O)N[C@@H](CO)C(=O)N[C@@H](CO)C(=O)NCC(=O)N[C@@H](C)C(=O)N1CCC[C@H]1C(=O)N1CCC[C@H]1C(=O)N1CCC[C@H]1C(=O)N[C@@H](CO)C(N)=O)[C@@H](C)O)C(C)C` [Example 75] (H-Y[Aib]EGT[Iva]ISDYSI[αMeL]LDKK([AEEA-AEEA-γGlu-C20 diacid])HQ[Aib]DFVE[4Pal]LLETGPSSGAPPPS-NH2): the Ki on human GLP-1R was greater than 902 nM; at human GIPR, 0.0626 nM; at human GcgR it was greater than 958 nM.
`CC[C@H](C)[C@H](NC(=O)[C@H](CO)NC(=O)[C@H](Cc1ccc(O)cc1)NC(=O)[C@H](CC(=O)O)NC(=O)[C@H](CO)NC(=O)[C@@H](NC(=O)[C@](C)(CC)NC(=O)[C@@H](NC(=O)CNC(=O)[C@H](CCC(=O)O)NC(=O)C(C)(C)NC(=O)[C@@H](N)Cc1ccc(O)cc1)[C@@H](C)O)[C@@H](C)CC)C(=O)N[C@@](C)(CC(C)C)C(=O)N[C@@H](CC(C)C)C(=O)N[C@@H](CC(=O)O)C(=O)N[C@@H](CCCN)C(=O)N[C@@H](CCCCNC(=O)COCCOCCNC(=O)COCCOCCNC(=O)CC[C@H](NC(=O)CCCCCCCCCCCCCCCCCCC(=O)O)C(=O)O)C(=O)N[C@@H](Cc1c[nH]cn1)C(=O)N[C@@H](CCC(N)=O)C(=O)NC(C)(C)C(=O)N[C@@H](CC(=O)O)C(=O)N[C@@H](Cc1ccccc1)C(=O)N[C@H](C(=O)N[C@@H](CCC(=O)O)C(=O)N[C@@H](Cc1ccncc1)C(=O)N[C@@H](CC(C)C)C(=O)N[C@@H](CC(C)C)C(=O)N[C@@H](CCC(=O)O)C(=O)NCC(=O)NCC(=O)N1CCC[C@H]1C(=O)N[C@@H](CO)C(=O)N[C@@H](CO)C(=O)NCC(=O)N[C@@H](C)C(=O)N1CCC[C@H]1C(=O)N1CCC[C@H]1C(=O)N1CCC[C@H]1C(=O)N[C@@H](CO)C(N)=O)C(C)C` [Example 76] (H-Y[Aib]EGT[Iva]ISDYSI[αMeL]LD[Orn]K([AEEA-AEEA-γGlu-C20 diacid])HQ[Aib]DFVE[4Pal]LLEGGPSSGAPPPS-NH2): the figures for the inhibition constant Ki at human GLP-1R, on human GIPR and at human GcgR were 263 nM, 0.0293 nM and 358 nM, respectively.
